Test results reported in PMC10374445 (Nature Chemical Biology, 2023).

Tests used:
CydDC [1] = molecular target: T1, CydDC (Escherichia coli, UniProt P23886+P29018); assay: single-particle cryo-EM structure; assay type: binding; conditions: IFasym apo state, active turnover
T1 construct: gene cydC; full-length heterodimer, C-terminal His6 on CydC, from pTTQ18 (pcydDC) in E. coli BL21 pLysS (DE3); purified in DDM (ATPase assays) or LMNG (cryo-EM)

CydDC [2] = molecular target: T2, CydDC (Escherichia coli, UniProt P23886+P29018, P23886:E500Q); assay: single-particle cryo-EM structure; conditions: Occ return apo state; both nucleotide-binding sites; turnover dataset with heme, ATP and Mg2+
T2 construct: gene cydC; full-length heterodimer, C-terminal His6 on CydC, from pTTQ18 (pcydDC) in E. coli BL21 pLysS (DE3); purified in DDM (ATPase assays) or LMNG (cryo-EM)
T2 sequence (P23886 whole entry E500Q): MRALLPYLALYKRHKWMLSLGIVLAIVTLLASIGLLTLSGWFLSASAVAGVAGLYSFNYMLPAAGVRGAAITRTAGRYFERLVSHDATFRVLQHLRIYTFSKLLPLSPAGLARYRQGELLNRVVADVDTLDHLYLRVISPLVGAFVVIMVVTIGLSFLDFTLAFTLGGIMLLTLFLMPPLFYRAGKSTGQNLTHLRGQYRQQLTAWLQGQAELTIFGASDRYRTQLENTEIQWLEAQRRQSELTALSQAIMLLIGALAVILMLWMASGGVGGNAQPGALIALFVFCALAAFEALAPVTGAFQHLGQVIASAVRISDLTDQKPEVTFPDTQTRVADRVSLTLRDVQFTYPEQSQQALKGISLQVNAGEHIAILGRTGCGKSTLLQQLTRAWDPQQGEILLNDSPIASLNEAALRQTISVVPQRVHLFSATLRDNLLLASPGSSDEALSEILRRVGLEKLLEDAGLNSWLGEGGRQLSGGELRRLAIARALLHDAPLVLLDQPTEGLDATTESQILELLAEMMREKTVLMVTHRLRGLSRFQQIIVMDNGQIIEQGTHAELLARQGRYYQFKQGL
T2 sequence (P29018 whole entry): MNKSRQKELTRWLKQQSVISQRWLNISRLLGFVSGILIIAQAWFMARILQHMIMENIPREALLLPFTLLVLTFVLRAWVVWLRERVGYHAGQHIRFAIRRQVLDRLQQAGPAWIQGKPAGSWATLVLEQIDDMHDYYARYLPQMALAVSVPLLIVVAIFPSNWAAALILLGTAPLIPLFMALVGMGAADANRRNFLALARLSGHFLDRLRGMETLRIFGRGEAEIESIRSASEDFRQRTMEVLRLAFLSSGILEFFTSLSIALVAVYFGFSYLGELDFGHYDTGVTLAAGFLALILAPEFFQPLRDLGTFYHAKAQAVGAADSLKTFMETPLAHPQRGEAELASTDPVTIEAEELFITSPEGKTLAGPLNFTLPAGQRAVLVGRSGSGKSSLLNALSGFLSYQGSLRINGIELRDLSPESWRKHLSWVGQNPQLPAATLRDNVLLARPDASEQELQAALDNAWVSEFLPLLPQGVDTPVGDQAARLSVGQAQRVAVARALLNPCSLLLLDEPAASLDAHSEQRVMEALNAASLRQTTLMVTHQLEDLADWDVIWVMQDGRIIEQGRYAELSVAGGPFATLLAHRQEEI

[3] = system: Nc1ncnc2c1ncn2[C@@H]1O[C@H](COP(=O)(O)OP(=O)(O)OP(=O)(O)O)[C@@H](O)[C@H]1O; assay: purified protein; conditions: 0.3 µM heme, 3 mM MgCl2, pH 7.0, 37 °C, 0.02% DDM

T1 sequence (P23886 whole entry): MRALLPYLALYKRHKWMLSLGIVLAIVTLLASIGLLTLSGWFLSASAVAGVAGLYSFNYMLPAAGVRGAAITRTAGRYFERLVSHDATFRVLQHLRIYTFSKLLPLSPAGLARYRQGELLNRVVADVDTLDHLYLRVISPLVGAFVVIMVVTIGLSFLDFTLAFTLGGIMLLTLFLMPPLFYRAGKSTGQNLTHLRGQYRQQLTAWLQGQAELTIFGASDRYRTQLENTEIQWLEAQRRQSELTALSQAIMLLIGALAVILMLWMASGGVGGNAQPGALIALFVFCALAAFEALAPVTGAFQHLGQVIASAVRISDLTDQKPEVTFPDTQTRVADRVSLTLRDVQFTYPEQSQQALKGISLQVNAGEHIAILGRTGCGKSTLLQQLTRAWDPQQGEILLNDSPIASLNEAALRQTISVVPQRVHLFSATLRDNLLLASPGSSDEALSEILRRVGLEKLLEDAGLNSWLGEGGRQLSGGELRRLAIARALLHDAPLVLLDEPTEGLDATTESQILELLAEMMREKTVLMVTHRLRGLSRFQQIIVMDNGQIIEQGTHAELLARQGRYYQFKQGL
T1 sequence (P29018 whole entry): as the sequence (P29018 whole entry) above

## Nc1ncnc2c1ncn2[C@@H]1O[C@H](COP(=O)(O)OP(=O)(O)O)[C@@H](O)[C@H]1O [ADP]
CydDC [1]; site NBS of CydC, with Pi
  single-particle cryo-EM structure: obtained from the turnover dataset of CydDC to ADP and Pi

## Nc1ncnc2c1ncn2[C@@H]1O[C@H](COP(=O)(O)OP(=O)(O)OP(=O)(O)O)[C@@H](O)[C@H]1O [ATP]
CydDC [1]; degenerate site NBS of CydD
  single-particle cryo-EM structure: NBS^D conformations in the Occreturnapo (ATP), IFasymapo (ATP)
CydDC [2]
  single-particle cryo-EM structure: The left panel shows a close-up view of ATP bound to NBS^D

## CydDC (Escherichia coli K-12)
[3]
  Km: 91.9 ± 9.7 µM
